Assay results published in US20220185832A1, “CD73 INHIBITORS” (BioArdis LLC, priority 2019, published 2022).

Columns and labels:
[1] = target: T1, Cell surface CD73 of U87 MG human glioblastoma cells (Homo sapiens, UniProt P21589); test: CD73 Cellular Assay; format: cell-based; settings: 5000 cells per well, 30 μM AMP, PiColorLock phosphate detection in supernatant, read-out: Potency (IC50)
T1 construct: Cell surface CD73 catalyzes the conversion of adenosine monophosphate (AMP) to adenosine and inorganic phosphate; endogenous in cells; host or cells: U87 MG human glioblastoma cells
T1 sequence (P21589 27-549): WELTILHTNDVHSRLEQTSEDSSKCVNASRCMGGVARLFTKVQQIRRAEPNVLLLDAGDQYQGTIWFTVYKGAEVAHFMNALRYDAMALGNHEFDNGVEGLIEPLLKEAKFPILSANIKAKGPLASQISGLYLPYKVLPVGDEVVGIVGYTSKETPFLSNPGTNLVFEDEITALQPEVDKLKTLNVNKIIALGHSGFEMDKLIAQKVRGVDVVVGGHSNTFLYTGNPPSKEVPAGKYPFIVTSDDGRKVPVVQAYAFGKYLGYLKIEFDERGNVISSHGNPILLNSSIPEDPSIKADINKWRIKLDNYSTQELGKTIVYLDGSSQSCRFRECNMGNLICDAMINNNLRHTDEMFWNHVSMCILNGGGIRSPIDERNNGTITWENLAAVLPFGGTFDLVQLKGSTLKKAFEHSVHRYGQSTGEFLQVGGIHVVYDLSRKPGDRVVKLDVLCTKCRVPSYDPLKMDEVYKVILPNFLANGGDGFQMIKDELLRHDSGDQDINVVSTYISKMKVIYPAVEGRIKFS
Procedure: Cell surface CD73 catalyzes the conversion of adenosine monophosphate (AMP) to adenosine and inorganic phosphate. U87 MG human glioblastoma cells express high level of CD73. Cells are treated with compounds in a 96-well assay plate and supernatants are collected into a 384-well detection plate. The concentration of inorganic phosphate (Pi) in the supernatants is determined using the phosphate detection reagent, PiColorLock™ (Innova Bioscience, Cat #303-0125) following the manufacturer's instructions.
Briefly, on the day of the assay, U87 MG cells were harvested and resuspended in assay buffer which consisted of 20 mM HEPES, pH=7.4, 137 mM NaCl, 5.4 mM KCl, 1.3 mM CaCl2, 4.2 mM NaHCO3 and 0.1% glucose. To test the effect of compounds on cellular CD73 enzymatic activity, 500 nL/well of compounds dissolved in DMSO were added to a 96-well TC-treated microplate (Corning #3599). Next, 80 μL/well of U87 MG cells in assay buffer were added to assay plate. After 30 minutes of incubation in an atmosphere of 5% CO2 at 37° C., 20 μL/well of 150 μM AMP (Adenosine 5′-monophosphate monohydrate, Sigma, Cat #01930) in assay buffer was added to assay plate. Final assay conditions consisted of 5000 cells per well in 0.5% DMSO and 30 μM AMP substrate. After 50 minutes of incubation in an atmosphere of 5% CO2 at 37° C., 50 μL/well of supernatant was transferred to the 384-well detection plate (Corning® NBSTM 384 well plates, Cat #3640). Meanwhile “Gold mix” was prepared shortly before use by adding 1/100 volume of accelerator to the PiColorLock™ Gold reagent. 12 μL/well of the “Gold mix” was added to detection plate containing 50 μL/well of supernatant and incubated at 25° C. for 5 minutes. 5 μL/well stabilizer was added to the detection plate and incubated at 25° C. for 30 minutes. The absorbance at 635 nm was measured on a Spark 10M instrument (TECAN).
(§1) The percent (%) inhibition at each concentration of a compound was calculated relative to the OD value in the Max and Min control wells contained within each assay plate. The Max control wells contained cells and substrate as 0% inhibition, and the Min control wells only contained cells as 100% inhibition. The concentrations and percent inhibition values for a test compound are plotted and the concentration of the compound required to achieve 50% inhibition (IC50) was determined with a four-parameter logistic dose response equation.

[2] = target: T2, Recombinant Human 5′-Nucleotidase (CD73) (Homo sapiens, UniProt P21589); test: CD73 Enzyme Assay; format: biochemical; settings: 0.5 nM human CD73, 30 μM AMP, PiColorLock phosphate detection, OD 635 nm; read-out: Potency (IC50)
T2 construct: CHO derived CD73 (Trp27-Lys547), with a C-terminal 6-His tag; 6-His (C); purchased R&D 5795-EN; host or cells: CHO
T2 sequence (P21589 27-547): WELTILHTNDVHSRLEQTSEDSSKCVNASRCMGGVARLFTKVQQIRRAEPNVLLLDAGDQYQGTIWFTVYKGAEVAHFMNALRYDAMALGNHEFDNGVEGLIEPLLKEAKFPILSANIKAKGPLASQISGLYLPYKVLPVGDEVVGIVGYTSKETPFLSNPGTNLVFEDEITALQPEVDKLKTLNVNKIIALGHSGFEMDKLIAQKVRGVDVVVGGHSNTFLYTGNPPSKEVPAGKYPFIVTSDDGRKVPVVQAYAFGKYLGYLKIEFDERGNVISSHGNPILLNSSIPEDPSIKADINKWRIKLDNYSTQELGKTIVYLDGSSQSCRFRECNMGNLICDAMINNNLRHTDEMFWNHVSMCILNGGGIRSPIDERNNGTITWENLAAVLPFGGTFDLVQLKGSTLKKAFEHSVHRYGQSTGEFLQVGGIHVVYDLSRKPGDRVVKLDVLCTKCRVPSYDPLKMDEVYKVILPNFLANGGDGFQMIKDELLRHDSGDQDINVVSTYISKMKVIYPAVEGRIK
Text: Soluble recombinant CD73 catalyzes the conversion of adenosine monophosphate (AMP) to adenosine and inorganic phosphate. The phosphate detection reagent, PiColorLock™ (Innova Bioscience, Cat #303-0125) is based on the change in absorbance of the dye malachite green in the presence of inorganic phosphate (Pi) and this property can be exploited to measure any enzyme that generates Pi. Recombinant Human 5′-Nucleotidase (CD73) (R&D #5795-EN, CHO derived CD73 (Trp27-Lys547), with a C-terminal 6-His tag) was used in the enzymatic assay. This assay was run in a 384-well plate format (Corning® NBS™ 384 well plates, Cat #3640). The basic assay procedure involves two steps: 1) Enzyme reaction: The CD73 enzyme (R&D #5795-EN) is incubated in the presence or absence of compounds. AMP (sigma, cat #01930) is added to start the kinase reaction. 2) Detection step: “Gold mix” is added to the assay system, then stabilizers are added. After incubation the absorbance of the solution is read at OD 635 nm. The recorded OD signal is proportional to the enzyme activity.
Briefly, 25 μl human CD73 (0.5 nM final concentration) in the enzymatic buffer solutions (20 mM Tris, 25 mM NaCl, 1 mM MgCl2, pH 7.5, 0.005% Tween-20) were mixed with various concentrations of the test compound (dissolved in 100% DMSO). These solutions were incubated for 15 min at 25° C., and subsequently 25 μl AMP (30 μM final concentration) was added to start the reaction. The final reaction mixture of enzyme-substrate-compound was incubated for 20 min at 37° C. Meanwhile, “Gold mix” was prepared shortly before use by adding 1/100 vol. of accelerator to the PiColorLock™ Gold reagent. 12 μL/well of the “Gold mix” was added to assay plate containing 50 μL enzyme reaction buffer and incubated at 25° C. for 5 min. 5 μL/well stabilizer was added to the assay plate and incubated at 25° C. for 30 min. The absorbance of the well solutions was measured at 635 nm on a Spark 10M instrument (TECAN).
as §1, with “wells contained enzyme and substrate” for “wells contained cells and substrate”, “only contained substrate without enzyme as 100%” for “only contained cells as 100%”

| Structure (SMILES) | IC50 [1] | IC50 [2] |
| --- | --- | --- |
| O=P(O)(O)CP(=O)(O)OC[C@H]1O[C@@H](c2ccc3c(NCC4CCCC4)nc(Cl)nc3c2)[C@H](O)[C@@H]1O [Compound 5, (((((2R,3S,4R,5S)-5-(2-chloro-4-((cyclopentylmethyl)amino)quinazolin-7-yl)-3,4-dihydroxytetrahydrofuran-2-yl)methoxy)(hydroxy)phosphoryl)methyl)phosphonic acid] | < 10 nM | 10 to 99 nM |
| O=P(O)(O)CP(=O)(O)OC[C@H]1O[C@@H](c2ccc3c(NCC4CCCO4)nc(Cl)nc3c2)[C@H](O)[C@@H]1O (stereo partly drawn) [Compound 6, (((((2R,3S,4R,5S)-5-(2-chloro-4-(((tetrahydrofuran-2-yl)methyl)amino)quinazolin-7-yl)-3,4-dihydroxytetrahydrofuran-2-yl)methoxy)(hydroxy)phosphoryl)methyl)phosphonic acid] | < 10 nM | 10 to 99 nM |
| O=P(O)(O)CP(=O)(O)OC[C@H]1O[C@@H](c2ccc3c(NC4CCC4)nc(Cl)nc3c2)[C@H](O)[C@@H]1O [Compound 7, (((((2R,3S,4R,5S)-5-(2-chloro-4-(cyclobutylamino)quinazolin-7-yl)-3,4-dihydroxytetrahydrofuran-2-yl)methoxy)(hydroxy)phosphoryl)methyl)phosphonic acid] | < 10 nM | 10 to 99 nM |
| O=P(O)(O)CP(=O)(O)OC[C@H]1O[C@@H](c2ccc3c(NCC4CCC4)nc(Cl)nc3c2)[C@H](O)[C@@H]1O [Compound 8, (((((2R,3S,4R,5S)-5-(2-chloro-4-((cyclobutylmethyl)amino)quinazolin-7-yl)-3,4-dihydroxytetrahydrofuran-2-yl)methoxy)(hydroxy)phosphoryl)methyl)phosphonic acid] | < 10 nM | < 10 nM |
| O=P(O)(O)CP(=O)(O)OC[C@H]1O[C@@H](c2ccc3c(NCC4CC4)nc(Cl)nc3c2)[C@H](O)[C@@H]1O [Compound 9, (((((2R,3S,4R,5S)-5-(2-chloro-4-((cyclopropylmethyl)amino)quinazolin-7-yl)-3,4-dihydroxytetrahydrofuran-2-yl)methoxy)(hydroxy)phosphoryl)methyl)phosphonic acid] | < 10 nM | 10 to 99 nM |
| CN(c1ncnc2cc([C@@H]3O[C@H](COP(=O)(O)CP(=O)(O)O)[C@@H](O)[C@H]3O)ccc12)C1CCCC1 [Compound 10, (((((2R,3S,4R,5S)-5-(4-(cyclopentyl(methyl)amino)quinazolin-7-yl)-3,4-dihydroxytetrahydrofuran-2-yl)methoxy)(hydroxy)phosphoryl)methyl)phosphonic acid] | < 10 nM | 10 to 99 nM |
| O=P(O)(O)CP(=O)(O)OC[C@H]1O[C@@H](c2ccc3c(NCc4ccccc4)ncnc3c2)[C@H](O)[C@@H]1O [Compound 12, [({[(2R,3S,4R,5S)-5-[4-(benzylamino)quinazolin-7-yl]-3,4-dihydroxyoxolan-2-yl]methoxy}(hydroxy)phosphoryl)methyl]phosphonic acid] | < 10 nM | 10 to 99 nM |
| O=P(O)(O)CP(=O)(O)OC[C@H]1O[C@@H](c2ccc3c(NCc4ccccc4)nc(Cl)nc3c2)[C@@H](F)[C@@H]1O [Compound 13, (((((2R,3R,4S,5S)-5-(4-(benzylamino)-2-chloroquinazolin-7-yl)-4-fluoro-3-hydroxytetrahydrofuran-2-yl)methoxy)(hydroxy)phosphoryl)methyl)phosphonic acid] | 10 to 99 nM | 100 to 999 nM |
| Cc1nc(NCc2ccccc2)c2ccc([C@@H]3O[C@H](COP(=O)(O)CP(=O)(O)O)[C@@H](O)[C@H]3O)cc2n1 [Compound 17, (((((2R,3S,4R,5S)-5-(4-(benzylamino)-2-methylquinazolin-7-yl)-3,4-dihydroxytetrahydrofuran-2-yl)methoxy)(hydroxy)phosphoryl)methyl)phosphonic acid] | < 10 nM | 10 to 99 nM |
| C=Cc1nc(NCc2ccccc2)c2ccc([C@@H]3O[C@H](COP(=O)(O)CP(=O)(O)O)[C@@H](O)[C@H]3O)cc2n1 [Compound 18, [({[(2R,3S,4R,5S)-5-[4-(benzylamino)-2-ethenylquinazolin-7-yl]-3,4-dihydroxyoxolan-2-yl]methoxy}(hydroxy)phosphoryl)methyl]phosphonic acid] | < 10 nM | 10 to 99 nM |
| O=P(O)(O)CP(=O)(O)OC[C@H]1O[C@@H](c2ccc3c(NC4CCOC4)nc(Cl)nc3c2)[C@H](O)[C@@H]1O (stereo partly drawn) [Compound 22, (((((2R,3S,4R,5S)-5-(2-chloro-4-((tetrahydrofuran-3-yl)amino)quinazolin-7-yl)-3,4-dihydroxytetrahydrofuran-2-yl)methoxy)(hydroxy)phosphoryl)methyl)phosphonic acid] | < 10 nM | < 10 nM |
